The record followed here is ChEMBL document CHEMBL3507680, “University of Dundee, Gates Library screen for HepG2 cell viability”.

Each structure is given as a SMILES string.

The data set can be described thus: Human HepG2 cell viability assay in 384 well format. The data set is classed as toxicity, cell-based. Also on record: dose 125 nL, time 70.5 hour; cytotoxicity at 70.5 h: concentration not given beside the values. To be noted: HepG2 cells, read-out: Inhibition.
Regarding `Cn1cc(CN2CCO[C@@H]3CN(Cc4ccoc4)C[C@@H]3C2)cn1`, the cytotoxicity at 70.5 h is -0.642%.

On to `Cc1cnn(C2CN(CC(O)COc3ccc(C#N)cc3)C2)c1` (centres undefined), for which the cytotoxicity at 70.5 h was -3.3%.

Take `CCn1ccnc1CN1CCN(CC(O)CN2CCOCC2)CC1` (centres undefined): the cytotoxicity at 70.5 h was -15.7%. On to `CCN1C[C@H]2[C@@H](C1)N(C(=O)Cc1ccsc1)CC[C@H]2OC`, for which the cytotoxicity at 70.5 h was -7.9%. In the case of `CCc1nc(C2CCCN(C(=O)c3cccc4cn[nH]c34)C2)no1` (centres undefined), the cytotoxicity at 70.5 h stood at 3.52%. Turning to `Cc1nn(C)c(N2CCOCC2)c1CNCc1cccnc1`, the cytotoxicity at 70.5 h turned out to be 24.7%.

Take `N[C@H]1CN(S(=O)(=O)c2cccnc2)C[C@@H]1C1CC1`: the cytotoxicity at 70.5 h was -4.49%.

As to `Cc1nnc2n1CCN(C(=O)CN(C)Cc1ccccc1)C2`, the cytotoxicity at 70.5 h came out at 19.2%. `O=C(CCc1cc(O)no1)N1CCC(Cc2ccc(F)cc2)CC1`: the cytotoxicity at 70.5 h was -12%.

For the compound `Cc1oc(-c2cccs2)nc1C(=O)N(C)C1(C#N)CCC1`, the cytotoxicity at 70.5 h is -17.6%. For `c1cncc(-c2noc(CN3CCCC3Cn3cccn3)n2)c1` (centres undefined), the cytotoxicity at 70.5 h was -3.02%. Take `CCOc1cccc2c1OCC(C(=O)NS(=O)(=O)Cc1ccccc1)=C2`: the cytotoxicity at 70.5 h was 1.24%. Regarding `Cc1cccc(NCc2ncc(C(C)(C)C)o2)c1`, the cytotoxicity at 70.5 h is 12.6%.

Take `Cc1ccc(N2CCc3ncnc(N(C)C)c3CC2)nn1`: the cytotoxicity at 70.5 h was -6.25%. In the case of `CC(C)(C)n1cc(C(=O)N2CCN(Cc3ccco3)CC2)cn1`, the cytotoxicity at 70.5 h was -8.01%. The value for `O=C1NCCN(CC2CCCCC2)C1CC(=O)N1CCc2n[nH]cc2C1` (centres undefined) was -1.96%; that for `Cc1ccc(SCCN(C)C(=O)c2cn(CCN)nn2)cc1` was 16.5%; that for `COCc1noc(CNc2nc(C3CCCC3)nc3c2CCNCC3)n1` was -10.6%. The value for `COCCNc1ccc(CC2CCCN(Cc3c[nH]cn3)C2)nn1` (centres undefined) was -0.712%. Take `Cc1c(C(=O)NCC(C)C)nnn1-c1cccc2c1CCN(CCO)C2`: the cytotoxicity at 70.5 h was -2.54%. On to `O=C(NC1CCC1)[C@@H]1CCO[C@@H]2CCN(CCc3ccccc3)C[C@H]21`, for which the cytotoxicity at 70.5 h was -3.26%. Take `Cc1ccc(CN(C)C)cc1NC(=O)C1CC=CC1`: the cytotoxicity at 70.5 h was -3.31%. With `OC1CCN(Cc2c(C3CCCNC3)[nH]c3ncccc23)CC1` (centres undefined), the cytotoxicity at 70.5 h is -22.4%.

As for `Cc1cc(NC(=O)Cn2cnc(-c3cccs3)cc2=O)sn1`, the cytotoxicity at 70.5 h was 11.1%. On to `CN1CCN(Cc2ccsc2)Cc2cccnc21`, for which the cytotoxicity at 70.5 h is -6.75%. As to `O=C(NC1CCN(c2ccccc2OC(F)F)C1)c1c[nH]nn1` (centres undefined), the cytotoxicity at 70.5 h was -10.2%.

For the compound `CC(C)c1nnc2n1CCN(C(=O)c1cc3cc(F)ccc3[nH]1)C2`, the cytotoxicity at 70.5 h was -16.2%. For `CN(C)C(=O)CN1CCC2(CCCN(c3ncc(F)cn3)C2)C1=O` (centres undefined), the cytotoxicity at 70.5 h stood at 16.4%. `COc1ccc(C)c2c1N(C(=O)c1cnc3onc(C)c3c1)CCC2`: the cytotoxicity at 70.5 h was determined as 2.65%. For `Nc1ccnn1C1CCN(Cc2ccccc2)C1` (centres undefined), the cytotoxicity at 70.5 h was found to be 2.28%. In the case of `CCc1ncnc2c1CCN(Cc1ccccn1)CC2`, the cytotoxicity at 70.5 h is 28%. The value for `O=S1(=O)C[C@@H]2[C@H](C1)N(S(=O)(=O)N1CCCC1)CCN2Cc1ccccc1` was -5.47%; that for `CC(=O)c1cc(CC(=O)NCc2c(F)cccc2F)cs1` was -7.61%; that for `O=C(NCC1OCCc2cn(CC3CC3)nc21)c1ccsc1` (centres undefined) was 47.4%. In the case of `CC(=O)N1C[C@@H](c2ccsc2)[C@@H]2CN(Cc3cccc(Cl)c3)CC[C@@H]21`, the cytotoxicity at 70.5 h came to 8.95%. As for `O=C(c1ccccc1)N1CCO[C@@H]2CN(c3cnccn3)C[C@@H]2C1`, the cytotoxicity at 70.5 h is -12.3%. The value for `O=C(CCc1c(F)cccc1F)NS(=O)(=O)c1ccc2c(c1)OCCO2` was -6.92%; that for `CC(=O)N1CC[C@H]2CC(=O)N(Cc3ccc4c(c3)OCO4)CC[C@H]2C1` was -3.96%; that for `CCN1CC2(CCC1=O)CCN(C(=O)C(O)c1cccc(Cl)c1)CC2` (centres undefined) was -7.18%.

Consider `Nc1cc2c(nn1)CCN(C(=O)CCC1CCCCC1)C2`, for which the cytotoxicity at 70.5 h is -11.1%. The value for `NC(=O)NC(=O)CCN(Cc1ccccc1)CC1CCOCC1` was -2.94%; that for `CN(Cc1ccccc1)C(=O)CS(=O)(=O)Cc1ccc(Cl)c(Cl)c1` was -4.65%. The value for `O=C(NCCCn1ccnc1)N1CCN(c2cccs2)CC1` was -8.6%; that for `CC(C)(C)c1cnc(CN2CCCCC2Cn2cccn2)o1` (centres undefined) was 18.8%. On to `Cc1cc(C(=O)N2CCCS2(=O)=O)c(C)o1`, for which the cytotoxicity at 70.5 h is -9.77%.

As for `O=C(O)c1nnn(-c2ccc(Cl)c(C(F)(F)F)c2)c1-c1ccncc1`, the cytotoxicity at 70.5 h is -26.7%. The value for `COC(=O)c1cc2n(n1)CCN(C(=O)c1csc(CN(C)C)n1)C2` was -12.3%; that for `Cc1cc(CN2C[C@@H]3COC[C@]3(CNC(=O)N(C)C)C2)no1` was -1.07%.

Consider `COc1ccc(Cc2ncc3c(n2)CN(C(=O)C2COCCO2)C3)cc1` (centres undefined), for which the cytotoxicity at 70.5 h is -3.32%. `c1cnn(CC2CCCCN2Cc2nc(-c3ccoc3)no2)c1` (centres undefined): the cytotoxicity at 70.5 h amounted to 3.95%.

As to `COCc1nc(N(C)C)ncc1C(=O)Nc1cc(C)cc(C)c1`, the cytotoxicity at 70.5 h is -6.56%. The value for `CC(CO)NCc1csc2c1CCCC2` (centres undefined) was 0.572%; that for `CCNS(=O)(=O)c1cnccc1N1CCN(CCO)CC1` was 4.82%. Take `CN(C)C(=O)c1ccc(-c2cscn2)cc1`: the cytotoxicity at 70.5 h amounted to 1.52%. In the case of `CNc1cnc(CC2COCCN(Cc3cccc(C)n3)C2)cn1` (centres undefined), the cytotoxicity at 70.5 h is -2.94%. Consider `COc1ccc(N2CCNC(C(N)=O)C2)cc1` (centres undefined), for which the cytotoxicity at 70.5 h came out at 18.6%.

Turning to `Cn1cc(C(=O)Nc2cccc(-c3ccc4c(c3)CCO4)n2)ccc1=O`, the cytotoxicity at 70.5 h is 12%.

For the compound `CSCc1noc(Cn2ccc3ccccc3c2=O)n1`, the cytotoxicity at 70.5 h is -10.8%. Regarding `CC(C)C(=O)N1CC[C@H]2N(C)CC[C@@]2(C(=O)Nc2ccccc2)CC1`, the cytotoxicity at 70.5 h is -10.2%.

Regarding `O=C(c1cccc(F)c1)N(CCCO)S(=O)(=O)c1cccs1`, the cytotoxicity at 70.5 h is -8.04%.

As to `Cc1nc(NCc2nnc(C)n2C)c2c(CC(C)C)csc2n1`, the cytotoxicity at 70.5 h worked out at 0.805%. Regarding `Cc1ccc(NCC2(O)CCNCC2)cc1C`, the cytotoxicity at 70.5 h is -1.72%.

In the case of `CCc1cnc(CNC(=O)NC2CCN(C3CCCC3)CC2)s1`, the cytotoxicity at 70.5 h worked out at 14%. As to `O=C(c1cc(-c2ccc(O)cc2)n[nH]1)N1CCCC1c1cccnc1` (centres undefined), the cytotoxicity at 70.5 h turned out to be 0.428%. Turning to `CNc1cc(C)nc(N2Cc3cnn(Cc4ccc(F)cc4)c3C2)n1`, the cytotoxicity at 70.5 h turned out to be 11.4%. The value for `Cc1cc(C)cc(NC(=O)Nc2c(O)oc3ccccc3c2=O)c1` was -6.68%; that for `O=C(NCC1(c2cccs2)CCCCC1)N1CCOC(CO)C1` (centres undefined) was -1.73%. The value for `CNC(=O)NC(=O)CN(CC(C)O)c1ccccc1` (centres undefined) was -3.36%; that for `Cc1nc(-c2ccc(CC(=O)N3CCN(C(=O)C(C)C)CC3)cc2)cs1` was -1.97%. Consider `CCCc1nc(NC2(COC)CCCC2)c2cnn(C)c2n1`, for which the cytotoxicity at 70.5 h was -4.69%. The value for `FC(F)(F)CCc1ccnc(N2CCN(CCc3ccncc3)CC2)n1` was -6.22%.

`c1cncc(OC[C@]23COC[C@H]2CN(Cc2ccsc2)C3)c1`: the cytotoxicity at 70.5 h was -129%.

For the compound `Cc1nnsc1C(=O)NCCn1ccc(-c2ccncc2)n1`, the cytotoxicity at 70.5 h is 18.8%. On to `CN(C)c1nc(N)nc(CN2CCC(c3nc4ccccc4o3)CC2)n1`, for which the cytotoxicity at 70.5 h is -7.79%.

Regarding `Cc1ccc(CN(CCN(C)C)Cc2ccnn2C2CCCCO2)o1` (centres undefined), the cytotoxicity at 70.5 h is -3.26%. The value for `C[C@H](O)CNc1cc(-c2ccncc2)ncn1` was -0.809%; that for `O=C1CN(C(=O)c2cccc(OCc3cscn3)c2)CCN1` was -1.69%; that for `O=C(NCCNS(=O)(=O)c1ccc2c(c1)CCC2)c1ccccc1` was -1.96%.

Turning to `O=C(c1cccnc1)C1CCCN(c2nnc(C3CC3)o2)C1` (centres undefined), the cytotoxicity at 70.5 h is -1.21%.

Regarding `O=C(c1cnccn1)N1CCC2(CC1)CC(Oc1ccccc1)CO2` (centres undefined), the cytotoxicity at 70.5 h is 25.9%.

Regarding `COCC(=O)N1CCC(c2cccc(Cc3ccc(F)cc3)n2)CC1`, the cytotoxicity at 70.5 h was -6.39%. As for `O=C(O)C1c2nc[nH]c2CCN1Cc1ccccc1-c1ccccc1` (centres undefined), the cytotoxicity at 70.5 h is -3.54%.

As to `O=C(N1CCC(Oc2ccncc2)CC1)C1(c2ccc(F)cc2)CC1`, the cytotoxicity at 70.5 h is -3.22%.

Take `CNC(=O)C1(c2cnccn2)CCCN1C(=O)c1c(F)cccc1F` (centres undefined): the cytotoxicity at 70.5 h worked out at 18.1%. With `CN(C)[C@@H]1CCN(S(C)(=O)=O)[C@H]1Cc1ccccc1`, the cytotoxicity at 70.5 h came out at 1.53%.

`COc1ccc(C2CCCN2C(=O)NCCNc2ncccn2)cc1` (centres undefined): the cytotoxicity at 70.5 h was -4.74%.

Turning to `c1ccc(Cc2nnc(CN3CCCC3Cn3cccn3)o2)cc1` (centres undefined), the cytotoxicity at 70.5 h is -1.31%.

As for `COc1ccccc1C1CNCCN1C(=O)c1ccc(F)cc1` (centres undefined), the cytotoxicity at 70.5 h is 0.353%. The value for `O=C(c1ccc2ccccc2c1)C1CCCN(C(=O)Cn2cnnn2)C1` (centres undefined) was -3.65%; that for `O=C(c1ccsc1)N1C[C@H]2CN(Cc3cccnc3)C(=O)[C@H]2C1` was 4.1%. The value for `Cc1ccc(C(CNC(=O)c2c(C)noc2C(C)C)N(C)C)cc1` (centres undefined) was -4.44%. On to `O=C(O)C1CN(c2cncc(Cc3ccccc3)n2)C1`, for which the cytotoxicity at 70.5 h was -3.73%.

Regarding `N#Cc1cccc(N2CCCC3(CN(C(=O)NC4CC4)CCO3)C2)c1` (centres undefined), the cytotoxicity at 70.5 h is -1.09%. Take `O=C(NCc1cc[nH]n1)NCC(c1ccc(F)cc1)N1CCOCC1` (centres undefined): the cytotoxicity at 70.5 h is -12.9%. As for `COc1cc(N2CCCC(c3nccn3CCN(C)C)C2)nc(N)n1` (centres undefined), the cytotoxicity at 70.5 h was -8.19%.

On to `COc1cc(Br)cc(CNC2CCCNC2=O)c1O` (centres undefined), for which the cytotoxicity at 70.5 h was determined as 2.96%. In the case of `Cc1noc(C(C)N2CCN(c3ncnc4ccccc34)CC2)n1` (centres undefined), the cytotoxicity at 70.5 h was -13.6%. In the case of `O=C(NCCN1CCOC1=O)c1ccc2sccc2c1`, the cytotoxicity at 70.5 h is -4.67%. Take `Cc1ccsc1CN(Cc1ccccn1)CC(O)CO` (centres undefined): the cytotoxicity at 70.5 h was -1.67%.
